“Also recorded” adds a separate entry of the source.
Legend:
WAG/Rij rats [1] = assay: EEG recording of spike-wave discharges (SWD number, averaged and total SWD time) in WAG/Rij rat model of human absence epilepsy; format: in vivo
From the text: Free access to water and food (Table 1), as well as standard laboratory conditions were provided.
Rats were implanted with stainless steel screw electrodes for EEG recording under isoflurane-air mixture (2.0-2.5%) anesthesia. The screw electrodes were placed epidurally over the cortex of the frontal (AP: 2.0 mm; L: 2.1 mm) and parietal (AP: −6.5 mm; L: 2.1 mm) areas. Reference electrodes and ground electrodes were also stainless-steel screw electrodes (implanted above the cerebellar cortex). All electrodes were soldered to a 10-pin socket and permanently attached to the skull with dentacrylate cement (Ivoclar Vivadent AG, Schaan, Liechtenstein). Lidocaine ointment (5%; EGIS, Budapest, Hungary) was used as post-operative pain relief.
The EEG was recorded in a Faraday cage. […] The sampling rate was 500 Hz whereas the bandwidth of the EEG recording was 0.3 Hz to 150 Hz. Both the treatments and handling may induce stress and behavioral changes, which may modify the SWD number. […] For this reason, data of the first 30 min after the treatments was excluded from the analysis. Thus, the number and time of SWDs were considered between 30 and 270 min of post-treatment time (from 1.00 PM to 5.00 PM). SWDs (a train of asymmetric 7-11 Hz sharp spikes and slow waves) were cut off from the raw data files and were analyzed by FFT analysis. The recording periods were split into 60 min sections and evaluated separately. […]
Animals were assigned into eight groups (FIG. 1). To help the rats to adapt to the experimental procedures (e.g., EEG recording), after the two-week recovery period animals were handled daily and were connected to the EEG/CED system for 4 days (once a day, for 4.5 h) (group 1-8). Moreover, on same days, rats of group 7 and group 8 were also gavaged by water (2.5 g/kg/day) for the adaptation of rats to gavage method. To establish averaged control SWD numbers (group 1-8) and control average time and total time of SWDs (group 5, group 6, and group 8), all rats received 1 mL saline i.p. on 3 consecutive days (three control days, first treatment). Thirty min later, animals were injected again with 1 mL saline i.p. (second treatment, group 1-6) or gavaged by 2.5 g/kg water (second treatment, group 7 and 8). […] On the fourth day of experiments, the rats in group 1 and group 2 were i.p. injected with 1 mL 10% DMSO solution (first treatment) and, 30 min later, with 250 mg/kg, and 1000 mg/kg uridine in 1 mL saline (second treatment), respectively. On the fourth day, animals in group 3 first received 0.2 mg/kg DPCPX alone in 1 mL 10% DMSO solution (first treatment) followed by i.p. 1 mL saline (30 min later; second treatment) (FIG. 1). […] On that day, the animals in group 5 were injected with combined i.p. injection of DPCPX and uridine: 0.2 mg/kg DPCPX in 1 mL 10% DMSO solution (first treatment) and, 30 min later, 1000 mg/kg uridine in 1 mL saline (second treatment) were administered. […] Animals of group 7 received i.p. 1 mL saline (first treatment), and 30 min later, gavage of 2.5 g/kg KSMCT was carried out (second treatment) on the fourth day. […] On the fifth (PTC) day, i.p. administration of 1 mL saline (first treatment) was followed by gavage of 2.5 g/kg water (30 min later; second treatment; group 7 and 8) (FIG. 1).
Data were presented as means±standard error of the mean (S.E.M.). The pretreatment control values of SWD numbers (group 1-8) and SWD time (group 5, group 6, and group 8) were the grand average of SWD numbers and time recorded on the three control days.

WAG/Rij rats [2] = conditions: effective doses; previous studies [7,8,25,41,45]; cited from earlier work
[3] = DPCPX i.p. 0.2 mg/kg or SCH 58261 i.p. 0.5 mg/kg alone, PTC day (groups 3 and 4, FIG. 2C,D)

Structure (SMILES)	SWD number compared to control (WAG/Rij rats [1]; DPCPX i.p. 0.2 mg/kg alone, treatment day, 30-270 min (group 3, FIG. 2C), 0.2 mg/kg)	SWD number compared to control (WAG/Rij rats [1]; [3])	sleep-waking ratios and averaged time of SWDs (WAG/Rij rats [2])	SWD number compared to control (WAG/Rij rats [1]; SCH 58261 i.p. 0.5 mg/kg alone, treatment day, four hours recording (group 4, FIG. 2D))	SWD number compared to control (WAG/Rij rats [1]; uridine i.p. 250 mg/kg alone, post-treatment control (PTC) day (group 1, FIG. 2A))	SWD number compared to control (WAG/Rij rats [1]; uridine i.p. 250 mg/kg alone, treatment day, second to fourth hours of recording (group 1, FIG. 2A), 250 mg/kg)	SWD number compared to control (WAG/Rij rats [1]; uridine i.p. 1000 mg/kg alone, PTC day, 30-270 min (group 2, FIG. 2B))	SWD number compared to control (WAG/Rij rats [1]; uridine i.p. 1000 mg/kg alone, treatment day, 90-270 min (group 2, FIG. 2B), 1000 mg/kg)
CCCn1c(=O)c2[nH]c(C3CCCC3)nc2n(CCC)c1=O [DPCPX, 1,3-dipropyl-8-cyclopentylxanthine]	did not evoke proepileptic effect; also recorded: did not generate changes in SWD number	did not change SWD number on PTC days	did not change sleep-waking ratios and averaged time of SWDs					
Nc1nc2c(cnn2CCc2ccccc2)c2nc(-c3ccco3)nn12 [SCH 58261, 7-(2-phenylethyl)-5-amino-2-(2-furyl)-pyrazolo-[4,3-e]-1,2,4-triazolo[1,5-c]pyrimidine]		did not change SWD number on PTC days	did not change sleep-waking ratios and averaged time of SWDs	did not generate anti-epileptic effect				
O=c1ccn([C@@H]2O[C@H](CO)[C@@H](O)[C@H]2O)c(=O)[nH]1 [uridine]			did not change sleep-waking ratios and averaged time of SWDs		significant change in SWD number was not observed	only a trend of non-significant decrease in SWD number	significantly decreased SWD number	significantly decreased the SWD number

Reference: patent publication US11974973B2, “Ketone supplements-evoked effect on absence epilepsy by co-administration of uridine” (UNIVERSITY OF SOUTH FLORIDA, priority 2022, dated 2024)
